Measurements from US10294202B2, “Pyrrolidinones as herbicides” (FMC Corporation, priority 2013, dated 2019).

What was measured:
ryegrass, Italian = assay: Test A pre-/postemergence herbicide test; assay type: in vivo, Lolium multiflorum
Outline: (§1)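 Directed soil spray to seeded pots (preemergence) or spray onto one- to two-leaf seedlings 2–10 cm tall (postemergence); loam/sand substrate throughout. Evaluated visually after about 10 days against untreated plants, 0 = no effect, 100 = complete control.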

barnyardgrass [1] = assay: Test A pre-/postemergence herbicide test; assay type: in vivo, Echinochloa crus-galli
Outline: as §1

sedge, umbrella = assay: Test B flooded paddy test; assay type: in vivo, Cyperus difformis; settings: 500 g ai/ha, Flood; scale of 0 to 100 where 0 is no effect and 100 is complete control
Outline: (§2)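 Scoring: visual, compared with untreated controls, 0 = no effect through 100 = complete control, taken 13 to 15 days after treatment in the greenhouse. Compounds had been added to paddy water over soil flooded 3 cm deep at the plants' 2-leaf stage.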

rice = assay: Test B flooded paddy test; assay type: in vivo, Oryza sativa; settings: 500 g ai/ha, Flood; scale of 0 to 100 where 0 is no effect and 100 is complete control
Outline: as §2

barnyardgrass [2] = assay: Test B flooded paddy test; assay type: in vivo, Echinochloa crus-galli; settings: 500 g ai/ha, Flood; scale of 0 to 100 where 0 is no effect and 100 is complete control
Outline: as §2

kochia = assay: Test A pre-/postemergence herbicide test; assay type: in vivo, Kochia scoparia
Outline: as §1

corn = assay: Test A pre-/postemergence herbicide test; assay type: in vivo, Zea mays; settings: Postemergence
Outline: as §1

blackgrass = assay: Test A postemergence herbicide test; assay type: in vivo, Alopecurus myosuroides
Outline: (§3)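 Young potted plants in a loam–sand mix, one- to two-leaf stage and 2–10 cm tall, receive the test chemical postemergence and stay in a greenhouse for approximately 10 days. Injury is then judged by eye against untreated plants, scored 0 (none) to 100 (complete control).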

galium = assay: Test A postemergence herbicide test; assay type: in vivo, Galium aparine
Outline: as §3

wheat = assay: Test A pre-/postemergence herbicide test; assay type: in vivo, Triticum aestivum; settings: Postemergence
Outline: as §1

giant foxtail = assay: Test A pre-/postemergence herbicide test; assay type: in vivo, Setaria faberii
Outline: as §1

ragweed = assay: Test A pre-/postemergence herbicide test; assay type: in vivo, Ambrosia elatior
Outline: as §1

ducksalad = assay: Test B flooded paddy test; assay type: in vivo, Heteranthera limosa; settings: 500 g ai/ha, Flood; scale of 0 to 100 where 0 is no effect and 100 is complete control
Outline: as §2

pigweed = assay: Test A pre-/postemergence herbicide test; assay type: in vivo, Amaranthus retroflexus
Outline: as §1

[3] = Postemergence, 125 g ai/ha, visual rating on 0 to 100 scale (0 no effect, 100 complete control), approx. 10 days
[4] = Postemergence, 500 g ai/ha, 0 to 100 scale (0 no effect, 100 complete control)
[5] = Preemergence, 125 g ai/ha, 0 to 100 scale where 0 is no effect and 100 is complete control
[6] = Preemergence, 500 g ai/ha, visual rating on 0 to 100 scale (0 no effect, 100 complete control)
[7] = preemergence, 500 g ai/ha, 0 to 100 scale, 0 is no effect and 100 is complete control
[8] = 125 g ai/ha, visual rating on 0 to 100 scale (0 no effect, 100 complete control), approx. 10 days
[9] = 500 g ai/ha, 0 to 100 scale (0 no effect, 100 complete control)

SMILES	Plant response rating, Ryegrass, Italian (ryegrass, Italian; [3])	Plant response rating, Ryegrass, Italian (ryegrass, Italian; [5])	Ryegrass, Italian plant response rating (ryegrass, Italian; [6])	Plant response rating, Barnyardgrass (barnyardgrass [1]; [3])	Plant response rating, Barnyardgrass (barnyardgrass [1]; [4])	Plant response rating, Barnyardgrass (barnyardgrass [1]; [5])	Plant response rating, Sedge, Umbrella (sedge, umbrella)	Plant response rating, Rice (rice)	Plant response rating, Barnyardgrass (barnyardgrass [2])	Plant response rating, Kochia (kochia; [3])	Plant response rating, Kochia (kochia; [5])	Plant response rating, Corn (corn; [8])	Plant response rating, Corn (corn; [9])	Plant response rating, Blackgrass (blackgrass; [8])	Plant response rating, Blackgrass (blackgrass; [9])	Plant response rating, Galium (galium; [8])	Plant response rating, Wheat (wheat; [8])	Plant response rating, Foxtail, Giant (giant foxtail; [3])	Plant response rating, Foxtail, Giant (giant foxtail; [4])	Plant response rating, Foxtail, Giant (giant foxtail; [5])	further results
O=C1NCC(c2cc3ccccc3s2)C1C(=O)Nc1cccc(F)c1F (stereo not drawn) [Compound 296]	0	0	0	0	20	0	0	0	30	0	0	0	0	0	0	0	0	0	0	0	Plant response rating, Ryegrass, Italian (ryegrass, Italian; [4]): 0; Plant response rating, Barnyardgrass (barnyardgrass [1]; [7]): 0; Plant response rating, Kochia (kochia; [4]): 0; Plant response rating, Kochia (kochia; [7]): 0; Plant response rating, Galium (galium; [9]): 0; Plant response rating, Wheat (wheat; [9]): 0; Plant response rating, Foxtail, Giant (giant foxtail; [7]): 0; Plant response rating, Ragweed (ragweed; [3]): 0; Plant response rating, Ragweed (ragweed; [4]): 0; Plant response rating, Ragweed (ragweed; [5]): 0; Plant response rating, Ragweed (ragweed; [7]): 0; Plant response rating, Ducksalad (ducksalad): 60; Plant response rating, Pigweed (pigweed; [3]): 0; Plant response rating, Pigweed (pigweed; [4]): 0; Plant response rating, Pigweed (pigweed; [5]): 0; Plant response rating, Pigweed (pigweed; [7]): 0
O=C1NCC(c2ccc(Br)c(Br)c2)C1C(=O)Nc1cccc(F)c1F (stereo not drawn) [Compound 341]	0	0	0	30	50	50	0	0	0	0	0	0	30	0	0	0	0	50	70	80	Barnyardgrass plant response rating (barnyardgrass [1]; [6]): 80; Kochia plant response rating (kochia; [6]): 0; Foxtail, Giant plant response rating (giant foxtail; [6]): 90; Plant response rating, Ragweed (ragweed; [3]): 0; Plant response rating, Ragweed (ragweed; [5]): 0; Ragweed plant response rating (ragweed; [6]): 0; Plant response rating, Ducksalad (ducksalad): 0; Plant response rating, Pigweed (pigweed; [3]): 0; Plant response rating, Pigweed (pigweed; [5]): 0; Pigweed plant response rating (pigweed; [6]): 0
